Like-named read-outs stand apart in the source and are kept apart here.
Experiments:
[1] = tested on: 3MST-deficient E. coli cells; assay type: cell-based; details: diamide 25 μM, gentamicin 50 μg/ml for 5 min
CBS/CSE = assay type: cell-based, B. anthracis, S. aureus, P. aeruginosa; details: chemical inhibition of CSE (PAG) or CBS (AOAA), 18 hours culture
Wt E. coli cells = assay type: cell-based; details: then H2O2 2 mM for 10 min
pBR322 plasmid DNA = test: Electrophoresis assay of DNA damage in vitro (Fenton reaction); details: NaHS:Fe3+ 6:1, with Cys and H2O2, pH 8
recA′::gfp E. coli = assay type: cell-based; details: NaHS 200 μM, aspartate-treated cells
[2] = tested on: E. coli ΔsseA (3MST-deficient) strain; assay type: cell-based; details: Table 1; relative values of growth inhibition (negative numbers), ΔsseA vs wt E. coli
E. faecium A2373 = test: MIC of antibiotics with or without PAG/AOAA; assay type: cell-based; details: for MIC: Enterococcus faecium
Method: (§1) E. faecalis (ATCC 29212) cultures were prepared at initial inoculums of ˜5×10^5 CFU/ml in Mueller-Hinton II Broth (cation-adjusted). Aliquots of 190 μl were dispensed to each well of a fresh set of plates, and 10 μl of an antibiotic solution (levofloxacin, meropenem, gentamicin, piperacillin, linezolid, cefepime, daptomycin, vancomycin, or chloramphemicol) were transferred to the corresponding wells in each bacterial plate (FIG. 13). For each antibiotic, the starting concentration was 2×MIC (minimum inhibitory concentration) with serial ½ dilutions. Two sets of dilutions were prepared, and to one of them 0.1 mM AOAA was added. The resulting plates were kept at 37° C. and 85% humidity for 20 hours. All nine antibiotics tested were potentiated by AOAA, with respective MICs dropped from 8-fold to 32-fold (FIG. 13).
(§2) Minimum inhibitory concentration (MIC) determination was conducted as described in Example 7, above. To assess antibiotic potentiation by AOAA and PAG, MIC was determined for nine antibiotics (levofloxacin, meropenem, gentamicin, piperacillin, linezolid, cefepime, daptomycin, vancomycin, and chloramphemicol) and four bacterial strains (E. faecium (A2373), E. faecalis ([…]), S. pneumoniae (ATCC 49619), and P. aeruginosa (PAO1)) in the presence of antibiotic alone, 1 mM PAG, 0.1 mM AOAA, or 0.5 mM PAG+0.05 mM AOAA. The smaller the MIC value, the stronger the effect of antibiotic potentiation.

E. faecalis ATCC29212 = test: MIC of antibiotics with or without PAG/AOAA; assay type: cell-based; details: for MIC: Enterococcus faecalis
Method: Bacterial cultures were prepared at initial inoculums of ˜5×10^5 CFU/ml, and aliquots of 190 μl per well were dispensed. Ten μl of the indicated antibiotic solutions were added to each well. The starting concentration for each antibiotic solution was 2×MIC, with serial ½ dilutions. Two sets of dilutions were prepared, and 0.1 mM AOAA was added to one set. The plates were kept at 37° C. and 85% humidity for 20 hours.
as §1, §2

P. aeruginosa PAO1 = test: MIC of antibiotics with or without PAG/AOAA; assay type: cell-based; details: for MIC: Pseudomonas aeruginosa
Method: as §2

S. pneumoniae ATCC49619 = test: MIC of antibiotics with or without PAG/AOAA; assay type: cell-based; details: for MIC: Streptococcus pneumoniae
Method: as §2

E. coli cells = assay type: cell-based; details: pretreatment for 3 min, 2,2′-dipyridyl 0.05 mM or thiourea 15 mM, then Gm
[3] = in the presence of 0.5 mM PAG + 0.05 mM AOAA

SMILES	Minimum inhibitory concentration (E. faecium A2373; in the presence of 0.1 mM AOAA) [µg/mL]	Minimum inhibitory concentration (E. faecium A2373; [3]) [µg/mL]	Minimum inhibitory concentration (E. faecium A2373; in the presence of 1 mM PAG) [µg/mL]	Minimum inhibitory concentration (E. faecalis ATCC29212; in the presence of 0.1 mM AOAA) [µg/mL]	Minimum inhibitory concentration (E. faecalis ATCC29212; [3]) [µg/mL]	Minimum inhibitory concentration (E. faecalis ATCC29212; in the presence of 1 mM PAG) [µg/mL]	Minimum inhibitory concentration (P. aeruginosa PAO1; in the presence of 0.1 mM AOAA) [µg/mL]	Minimum inhibitory concentration (P. aeruginosa PAO1; [3]) [µg/mL]	Minimum inhibitory concentration (P. aeruginosa PAO1; in the presence of 1 mM PAG) [µg/mL]	Minimum inhibitory concentration (S. pneumoniae ATCC49619; in the presence of 0.1 mM AOAA) [µg/mL]	Minimum inhibitory concentration (S. pneumoniae ATCC49619; [3]) [µg/mL]	Minimum inhibitory concentration (S. pneumoniae ATCC49619; in the presence of 1 mM PAG) [µg/mL]	also measured
CN(C)C(=O)/N=N/C(=O)N(C)C [diamide]													Protection against Gm [1]: protected 3MST mutant cells against Gm
C#CCC(N)C(=O)O (racemic) [PAG, D,L-propargylglycine]													Effect on H2S production (PbS staining) (CBS/CSE): greatly decreased or eliminated PbS staining
[Na+].[SH-] [NaHS]													Increase in resistance to peroxide (Wt E. coli cells; NaHS 200 μM pretreatment for 1 min): > 20 times; Inhibition of Fenton-mediated DNA damage (pBR322 plasmid DNA): completely inhibited DNA damage; Effect on hyper-induction of SOS by gentamicin (recA′::gfp E. coli): completely suppressed the hyper-induction of SOS by gentamicin
NOCC(=O)O [AOAA, amino-oxyacetate]													Effect on H2S production (PbS staining) (CBS/CSE): greatly decreased or eliminated PbS staining
O=C(N[C@H](CO)[C@H](O)c1ccc([N+](=O)[O-])cc1)C(Cl)Cl [Chloramphenicol]	2	8	8	0.5	8	8	64	64	64	4	4	4	ΔsseA inhibition of growth [2]: −136; MIC (E. faecium A2373; A2373, antibiotic alone, read-out: Minimum inhibitory concentration): 8 µg/mL; MIC (E. faecalis ATCC29212; ATCC29212, antibiotic alone, read-out: Minimum inhibitory concentration): 8 µg/mL; MIC (P. aeruginosa PAO1; PAO1, antibiotic alone, read-out: Minimum inhibitory concentration): 64 µg/mL; MIC (S. pneumoniae ATCC49619; ATCC49619, antibiotic alone, read-out: Minimum inhibitory concentration): 8 µg/mL
CN[C@H](CC(C)C)C(=O)N[C@H]1C(=O)N[C@@H](CC(N)=O)C(=O)N[C@H]2C(=O)N[C@H]3C(=O)N[C@H](C(=O)N[C@H](C(=O)O)c4cc(O)cc(O)c4-c4cc3ccc4O)[C@H](O)c3ccc(c(Cl)c3)Oc3cc2cc(c3O[C@@H]2O[C@H](CO)[C@@H](O)[C@H](O)[C@H]2O[C@H]2C[C@](C)(N)[C@H](O)[C@H](C)O2)Oc2ccc(cc2Cl)[C@H]1O [Vancomycin]	2	>64	>64	1	2	2	>64	>64	>64	0.125	0.125	0.125	ΔsseA inhibition of growth [2]: −198; MIC (E. faecium A2373; A2373, read-out: Minimum inhibitory concentration): > 64 µg/mL; MIC (E. faecalis ATCC29212; ATCC29212, read-out: Minimum inhibitory concentration): 2 µg/mL; MIC (P. aeruginosa PAO1; PAO1, read-out: Minimum inhibitory concentration): > 64 µg/mL; MIC (S. pneumoniae ATCC49619; ATCC49619, read-out: Minimum inhibitory concentration): 0.125 µg/mL
C[C@@H](O)[C@H]1C(=O)N2C(C(=O)O)=C(S[C@@H]3CN[C@H](C(=O)N(C)C)C3)[C@H](C)[C@H]12 [Meropenom, meropenem]	6	>64	>64	0.25	1	4	0.5	0.5	0.5	0.063	0.063	0.063	Minimum inhibitory concentration (E. faecium A2373; antibiotic alone): >64 µg/mL; Minimum inhibitory concentration (E. faecalis ATCC29212; antibiotic alone): 4 µg/mL; Minimum inhibitory concentration (P. aeruginosa PAO1; antibiotic alone): 1 µg/mL; Minimum inhibitory concentration (S. pneumoniae ATCC49619; antibiotic alone): 0.125 µg/mL
c1ccc(-c2ccccn2)nc1 [2,2′-dipyridyl]													Protection against peroxide (in words) (Wt E. coli cells; dipyridyl 0.5 mM pretreatment for 1 min): protected them rapidly against peroxide; Effect on toxicity of Gm (E. coli cells): substantially decreased the toxicity of Gm

— patent publication US20140066362A1, “METHOD FOR TREATING INFECTIONS BY TARGETING MICROBIAL H2S-PRODUCING ENZYMES” (NEW YORK UNIVERSITY, priority 2011, published 2014)
